Measurements from US7662750B2, “Protein-protein interaction antagonist screening libraries based upon 1,4-disubstituted naphthalenes and related scaffolds” (The Research Foundation of State University of New York, priority 2003, dated 2010).
Values belong to the compound of their own block, whether it stands above or below them.

Legend:
[1] = biological target: T1, HOXA1-PBX1/DNA (Mus musculus, UniProt P41778); test: EMSA, formation of HOXA1-PBX1/DNA ternary complex; assay type: binding; details: for Selectivity for HOXA1-PBX1/DNA ternary complex relative to the other complexes tested: versus PBX1/DNA, BRN1/DNA, BRN2/DNA
T1 construct: the mouse/human 233-319 PBX1 protein
T1 sequence (P41778 233-319): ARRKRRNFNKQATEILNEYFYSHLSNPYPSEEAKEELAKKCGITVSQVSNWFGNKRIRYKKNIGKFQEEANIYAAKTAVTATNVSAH

[2] = biological target: T2, BRN1/DNA (Mus musculus, UniProt P31361); test: EMSA, BRN1/DNA complex (nuclear extracts from RA treated P19 cells); assay type: binding; details: EMSA with BRN1 recognition element probe
T2 construct: using nuclear extracts from RA treated P19 cells; endogenous in cells; host or cells: RA-treated P19 cells, nuclear extract
T2 sequence (P31361 1-497): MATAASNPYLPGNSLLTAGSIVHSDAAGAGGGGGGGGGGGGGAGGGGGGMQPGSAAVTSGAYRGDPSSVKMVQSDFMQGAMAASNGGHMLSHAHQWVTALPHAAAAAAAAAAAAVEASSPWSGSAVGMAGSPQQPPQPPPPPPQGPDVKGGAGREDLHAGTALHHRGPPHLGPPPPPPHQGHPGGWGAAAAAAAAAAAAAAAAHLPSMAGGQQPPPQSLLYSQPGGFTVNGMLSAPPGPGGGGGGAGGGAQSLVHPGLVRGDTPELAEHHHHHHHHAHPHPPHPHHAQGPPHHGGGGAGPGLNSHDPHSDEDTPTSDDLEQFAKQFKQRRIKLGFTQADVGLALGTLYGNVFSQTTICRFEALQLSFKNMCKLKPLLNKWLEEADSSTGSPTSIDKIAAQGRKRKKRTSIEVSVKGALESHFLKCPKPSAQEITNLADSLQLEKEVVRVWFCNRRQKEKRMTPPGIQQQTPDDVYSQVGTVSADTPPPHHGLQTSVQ
Protocol: (§1) The selectivity of individual members of the library for the HOXA1-PBX1/DNA target, as well as the ability of some analogs to cross over to other transcription factor targets was evaluated by testing them in parallel against the BRN1 & BRN2 transcription factors. BRN1 and BRN2 are members of mammalian class III POU transcription factor family and are expressed in the developing embryonic brain (McEvilly et al., Science 295:1528 (2002), which is hereby incorporated by reference in its entirety). POU domain class transciption factors contain, in addition to the POU domain, a homeodomain helix-turn-helix class DNA binding motif similar to that found in the HOX and PBX class transcription factors (Josephson et al., Development 125:3087 (1998); Hara et al., PNAS 89(8):3280 (1992), which are hereby incorporated by reference in their entirety). EMSAs were performed with BRN1 & BRN2 exactly as was done with HOXA1-PBX1 except that a sequence recognition element known to bind BRN1/BRN2 was used as the probe (Pruitt et al., Gene Expression Patterns 4(6):671 (2004), which is hereby incorporated by reference in its entirety).

[3] = biological target: T3, BRN2/DNA (Mus musculus, UniProt P31360); test: EMSA, BRN2/DNA complex (nuclear extracts from RA treated P19 cells); assay type: binding; details: EMSA with BRN2 recognition element probe
T3 construct: using nuclear extracts from RA treated P19 cells; endogenous in cells; host or cells: RA-treated P19 cells, nuclear extract
T3 sequence (P31360 whole entry): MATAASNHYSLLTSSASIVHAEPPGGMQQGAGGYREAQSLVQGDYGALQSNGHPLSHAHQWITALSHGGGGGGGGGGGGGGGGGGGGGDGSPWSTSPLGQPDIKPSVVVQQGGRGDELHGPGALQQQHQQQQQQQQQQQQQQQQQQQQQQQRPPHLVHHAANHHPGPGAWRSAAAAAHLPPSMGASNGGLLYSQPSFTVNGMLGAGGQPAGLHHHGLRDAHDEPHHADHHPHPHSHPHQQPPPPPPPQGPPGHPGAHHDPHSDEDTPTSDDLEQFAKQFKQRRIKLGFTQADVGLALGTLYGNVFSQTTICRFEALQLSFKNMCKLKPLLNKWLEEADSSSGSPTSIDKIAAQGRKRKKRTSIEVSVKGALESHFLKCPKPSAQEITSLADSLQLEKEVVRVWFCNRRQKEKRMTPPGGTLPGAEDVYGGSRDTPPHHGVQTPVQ
Protocol: as §1

[4] = biological target: T4, HOX-PBX1 cooperative DNA binding (Homo sapiens, UniProt P40424); details: literature value (Knoepfler et al. 1995); read-out: IC50 for blocking cooperative HOX-PBX DNA binding; cited from earlier work
T4 sequence (P40424 1-430): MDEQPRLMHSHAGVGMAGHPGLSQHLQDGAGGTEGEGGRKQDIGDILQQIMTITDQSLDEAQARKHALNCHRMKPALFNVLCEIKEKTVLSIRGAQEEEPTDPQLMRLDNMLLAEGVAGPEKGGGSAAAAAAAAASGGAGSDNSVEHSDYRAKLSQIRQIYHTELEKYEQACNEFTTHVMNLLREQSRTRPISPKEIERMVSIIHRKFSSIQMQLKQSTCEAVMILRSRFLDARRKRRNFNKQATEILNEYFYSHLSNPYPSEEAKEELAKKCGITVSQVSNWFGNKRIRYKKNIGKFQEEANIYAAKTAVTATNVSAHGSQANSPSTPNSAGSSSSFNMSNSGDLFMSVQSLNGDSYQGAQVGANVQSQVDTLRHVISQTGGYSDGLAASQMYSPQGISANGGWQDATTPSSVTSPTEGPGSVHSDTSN

[5] = biological target: T5, PBX1/DNA (Mus musculus, UniProt P41778); test: EMSA, formation of PBX1/DNA binary complex (FIG. 1); assay type: binding; details: for Inhibition of formation of the PBX1/DNA binary complex: FIG. 1
T5 construct: the mouse/human 233-319 PBX1 protein
T5 sequence (P41778 233-319): T1 sequence (P41778 233-319)
From the text: Antagonist 31 differs from compound 15 by replacing the small cyclopropyl R1 with the larger 4-hydroxyphenyl group. […] On the other hand, both antagonists can bind in the hydrophobic pocket thereby preventing HOXA1 from binding to the binary complex. Upon closer evaluation of the compound 31 dose-response of the binary PBX/DNA band intensity relative to the ternary HOXA1-PBX/DNA band intensity, it was noted that the binary PBX/DNA band initially “increased” in intensity at low compound 31 concentrations. […] As the concentration of compound 31 is further increased, the binary PBX/DNA complex formation is inhibited enough to overcome the release of this binary complex from the ternary complex and, therefore, the binary band intensity begins to decrease.

[6] = Table 1, EMSA, averaged densitometric analysis of multiple gels
[7] = Table 3, tricyclo[6.2.2.0^2,7]dodeca-2(7),3,5-trienes
[8] = Table 2, 5,6,7,8-tetrahydro-naphthalenes

Compound: QPQIYPWMRKLH
IC50 [4]: 100 µM

Compound: CCCNC(=O)COc1ccc(C(=O)Nc2cccc(F)c2)c2ccccc12 [Compound 11]
IC50 [1, 6]: 278 µM

Compound: O=C(COc1ccc(C(=O)Nc2cccc(F)c2)c2ccccc12)NC1CC1 [Compound 15]
IC50 [1, 6]: 173 µM
Selectivity for HOXA1-PBX1/DNA ternary complex relative to the other complexes tested [1]: selective
Inhibition of formation of the PBX1/DNA binary complex [5]: ternary complex only
IC50 [2]: 810 µM
IC50 [3]: > 10000 µM

Compound: O=C(COc1ccc(C(=O)Nc2cccc(F)c2)c2c1C1CCC2CC1)NC1CC1 [Compound 61]
IC50 [1, 7]: 562 µM

Compound: C#CCNC(=O)COc1ccc(C(=O)Nc2cccc(F)c2)c2ccccc12 [Compound 16]
IC50 [1, 6]: 331 µM

Compound: O=C(COc1ccc(C(=O)Nc2cccc(F)c2)c2ccccc12)Nc1ccc(O)cc1 [Compound 31]
IC50 [1, 6]: 65 µM
Selectivity for HOXA1-PBX1/DNA ternary complex relative to the other complexes tested [1]: some selectivity
Inhibition of formation of the PBX1/DNA binary complex [5]: inhibited
Binary PBX/DNA band intensity at low compound concentrations ([5]; dose-response, low concentrations): increased
IC50 [2]: 124 µM
IC50 [3]: 138 µM

Compound: COc1cccc(NC(=O)COc2ccc(C(=O)Nc3cccc(F)c3)c3ccccc23)c1 [Compound 28]
IC50 [1, 6]: 580 µM

Compound: COc1ccc(NC(=O)COc2ccc(C(=O)Nc3cccc(F)c3)c3ccccc23)cc1OC [Compound 34]
IC50 [1, 6]: 464 µM

Compound: O=C(COc1ccc(C(=O)Nc2cccc(F)c2)c2ccccc12)Nc1ccccc1 [Compound 23]
IC50 [1, 6]: 254 µM

Compound: CC(C)NC(=O)COc1ccc(C(=O)Nc2cccc(F)c2)c2ccccc12 [Compound 12]
IC50 [1, 6]: 272 µM

Compound: O=C(COc1ccc(C(=O)Nc2cccc(F)c2)c2c1C1CCC2CC1)Nc1ccc(O)cc1 [Compound 62]
IC50 [1, 7]: 196 µM

The next lines start with the values.

IC50 [1, 6]: 86 µM
IC50 [2]: 142 µM
IC50 [3]: 148 µM
Compound: O=C(COc1ccc(C(=O)Nc2cccc(F)c2)c2ccccc12)Nc1cccc(O)c1 [Compound 30]

IC50 [1, 6]: 111 µM
IC50 [2]: 162 µM
IC50 [3]: 204 µM
Compound: O=C(COc1ccc(C(=O)Nc2cccc(F)c2)c2ccccc12)NCC(F)(F)F [Compound 17]

IC50 [1, 6]: 718 µM
Compound: COc1ccccc1NC(=O)COc1ccc(C(=O)Nc2cccc(F)c2)c2ccccc12 [Compound 27]

IC50 [1, 8]: 96 µM
Compound: O=C(COc1ccc(C(=O)Nc2cccc(F)c2)c2c1CCCC2)Nc1ccc(O)cc1 [Compound 50]

IC50 [1, 6]: 272 µM
Compound: NC(=O)COc1ccc(C(=O)Nc2cccc(F)c2)c2ccccc12 [Compound 7]

IC50 [1, 7]: 258 µM
Compound: O=C(COc1ccc(C(=O)Nc2cccc(F)c2)c2c1C1CCC2CC1)NCC(F)(F)F [Compound 63, 6-[(2,2,2-Trifluoro-ethylcarbamoyl)-methoxy]-tricyclo[6.2.2.0^2,7]dodeca-2,4,6-triene-3-carboxylic Acid (3-fluoro-phenyl)-amide]

IC50 [1, 6]: 293 µM
Compound: O=C(COc1ccc(C(=O)Nc2cccc(F)c2)c2ccccc12)Nc1ccc(F)cc1 [Compound 26]

IC50 [1, 8]: 84 µM
Compound: O=C(COc1ccc(C(=O)Nc2cccc(F)c2)c2c1CCCC2)NCC(F)(F)F [Compound 49]

IC50 [1, 6]: 161 µM
Compound: COc1ccc(NC(=O)COc2ccc(C(=O)Nc3cccc(F)c3)c3ccccc23)cc1 [Compound 29]

IC50 [1, 8]: 66 µM
Compound: O=C(COc1ccc(C(=O)Nc2cccc(F)c2)c2c1CCCC2)NC1CC1 [Compound 48]

IC50 [1, 6]: 298 µM
Compound: CC(C)CNC(=O)COc1ccc(C(=O)Nc2cccc(F)c2)c2ccccc12 [Compound 13]
